In patent US20100216753A1, “CONTROLLED RELEASE OF DRUGS INTO/THROUGH THE SKIN” (Galderma S.A., priority 2005, published 2010):

Assay: Distribution of the drug in human skin (Franz' cells)
Assay type: in vitro ADME
Details: 16 hours after application on a human skin (Franz' cells)

Skin distribution of the drug: accumulate in the Stratum corneum
Structure (SMILES): CCC(=O)O[C@]1(C(=O)CCl)[C@@H](C)C[C@H]2[C@@H]3CCC4=CC(=O)C=C[C@]4(C)[C@@]3(F)[C@@H](O)C[C@@]21C [Clobetasol-17-propionate]
